# Source: article PMC12525769, “Structure and quenching of a bundle-shaped phycobilisome” (Science Advances, 2025)
# Experiments:
# Experiment in all cases: cryo-EM structure of phycobilisome
# Assay type in all cases: binding
# ApcE = target: T1, ApcE (Gloeobacter violaceus, UniProt Q7NL81); conditions: covalent; terminal emitter, D ring stacks on Trp162; ring conformation not resolved without restraints
# T1 construct: native, within isolated GraFix cross-linked phycobilisome; bilin in N-terminal alpha-like domain, in third AP trimer of basal cylinders
# T1 sequence (Q7NL81 1-1155): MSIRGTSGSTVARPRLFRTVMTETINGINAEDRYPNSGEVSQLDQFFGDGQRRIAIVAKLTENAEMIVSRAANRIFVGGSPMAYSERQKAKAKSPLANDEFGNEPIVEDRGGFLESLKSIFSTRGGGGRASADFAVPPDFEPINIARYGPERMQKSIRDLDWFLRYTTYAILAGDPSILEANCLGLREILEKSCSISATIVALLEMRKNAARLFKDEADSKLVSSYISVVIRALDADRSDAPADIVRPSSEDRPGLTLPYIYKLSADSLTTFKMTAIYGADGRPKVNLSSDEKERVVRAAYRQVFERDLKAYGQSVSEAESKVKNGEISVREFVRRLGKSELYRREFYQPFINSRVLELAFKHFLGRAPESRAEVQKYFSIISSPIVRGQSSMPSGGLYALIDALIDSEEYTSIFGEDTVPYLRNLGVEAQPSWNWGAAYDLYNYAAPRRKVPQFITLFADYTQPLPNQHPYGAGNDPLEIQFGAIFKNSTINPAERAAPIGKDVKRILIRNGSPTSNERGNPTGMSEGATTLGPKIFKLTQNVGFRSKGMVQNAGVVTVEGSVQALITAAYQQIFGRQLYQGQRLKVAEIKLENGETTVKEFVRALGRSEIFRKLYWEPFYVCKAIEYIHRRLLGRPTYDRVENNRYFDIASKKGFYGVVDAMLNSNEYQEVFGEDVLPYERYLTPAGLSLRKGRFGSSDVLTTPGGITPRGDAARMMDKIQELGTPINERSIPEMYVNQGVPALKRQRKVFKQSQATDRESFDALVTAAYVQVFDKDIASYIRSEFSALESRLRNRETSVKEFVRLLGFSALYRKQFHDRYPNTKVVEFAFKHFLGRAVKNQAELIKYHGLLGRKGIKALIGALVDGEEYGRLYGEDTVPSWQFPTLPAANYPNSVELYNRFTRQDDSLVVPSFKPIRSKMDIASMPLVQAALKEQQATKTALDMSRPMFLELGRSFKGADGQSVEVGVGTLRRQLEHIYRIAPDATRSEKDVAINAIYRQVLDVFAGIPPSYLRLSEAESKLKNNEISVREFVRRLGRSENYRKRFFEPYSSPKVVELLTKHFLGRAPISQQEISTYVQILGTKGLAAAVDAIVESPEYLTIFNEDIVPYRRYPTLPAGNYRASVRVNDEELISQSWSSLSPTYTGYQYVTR
# allophycocyanin (AP) = target: T2, allophycocyanin (AP) (Gloeobacter violaceus, UniProt Q7NL79+Q7NL80); conditions: covalent; one bilin on each alpha and beta subunit
# T2 construct: gene apcA; native, (αβ)3 trimers of the pentacylindrical core in isolated GraFix cross-linked phycobilisome
# T2 sequence (Q7NL80 1-161): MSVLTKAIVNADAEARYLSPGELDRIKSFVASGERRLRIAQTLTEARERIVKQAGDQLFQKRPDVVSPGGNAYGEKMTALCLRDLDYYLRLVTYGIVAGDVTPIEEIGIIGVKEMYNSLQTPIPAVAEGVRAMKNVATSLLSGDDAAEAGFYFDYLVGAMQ
# T2 sequence (Q7NL79 1-161): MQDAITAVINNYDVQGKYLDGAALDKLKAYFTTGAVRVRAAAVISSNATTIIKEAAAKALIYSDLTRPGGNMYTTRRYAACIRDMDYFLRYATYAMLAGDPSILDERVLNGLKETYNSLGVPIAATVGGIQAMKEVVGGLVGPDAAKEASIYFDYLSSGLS
# phycocyanin (PC) = target: T3, phycocyanin (PC) (Gloeobacter violaceus, UniProt Q7M7C7+Q7M7F7); conditions: covalent; one bilin on alpha, two on beta
# T3 construct: gene cpcA; native, (αβ)6 hexamers of rods and Rx in isolated GraFix cross-linked phycobilisome
# T3 sequence (Q7M7F7 1-162): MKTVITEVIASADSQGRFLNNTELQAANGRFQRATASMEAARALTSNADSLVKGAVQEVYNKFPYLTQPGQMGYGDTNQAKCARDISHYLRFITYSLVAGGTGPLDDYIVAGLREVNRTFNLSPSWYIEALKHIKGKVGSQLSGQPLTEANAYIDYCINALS
# T3 sequence (Q7M7C7 1-172): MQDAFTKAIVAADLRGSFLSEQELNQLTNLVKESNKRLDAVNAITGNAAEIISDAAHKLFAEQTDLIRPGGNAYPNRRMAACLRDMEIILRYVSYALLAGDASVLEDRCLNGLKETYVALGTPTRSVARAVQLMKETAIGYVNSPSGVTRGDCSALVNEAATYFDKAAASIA
compound,measurement,setting,value
CC=C1C(=Cc2[nH]c(C=C3N=C(C=C4NC(=O)C(CC)=C4C)C(C)=C3CCC(=O)O)c(CCC(=O)O)c2C)NC(=O)C1C (stereo not drawn) [phycocyanobilin],cryo-EM structure of phycobilisome,ApcE,"resolved in cryo-EM density map, including the terminal emitting bilin in ApcE"
same,cryo-EM structure of phycobilisome,allophycocyanin (AP),PCB conformations within PC hexamers in rods and AP hexamers in the core were resolved
same,cryo-EM structure of phycobilisome,phycocyanin (PC),PCB conformations within PC hexamers in rods and AP hexamers in the core were resolved
